Results taken from patent US8119633B2, “Substituted sulfonamide compounds” (Gruenenthal GmbH, priority 2007, dated 2012).

Tests used:
[1] = molecular target: T1, human bradykinin receptor 1 (B1R) (Homo sapiens, UniProt P46663); experiment: Functional study on the bradykinin receptor 1 (B1R), human: FLIPR Ca2+ influx assay; format: cell-based; conditions: test substance 10 μM, CHO K1 cells transfected with human B1R, Lys-Des-Arg9-bradykinin at EC80, Ca2+ influx (Fluo-4, FLIPR); for inhibition at 10 µM: read-out: B1R antagonism, human [10 μM] % inhibition
T1 construct: expressed in transfected cells; host or cells: CHO K1 cells
T1 sequence (P46663 1-353): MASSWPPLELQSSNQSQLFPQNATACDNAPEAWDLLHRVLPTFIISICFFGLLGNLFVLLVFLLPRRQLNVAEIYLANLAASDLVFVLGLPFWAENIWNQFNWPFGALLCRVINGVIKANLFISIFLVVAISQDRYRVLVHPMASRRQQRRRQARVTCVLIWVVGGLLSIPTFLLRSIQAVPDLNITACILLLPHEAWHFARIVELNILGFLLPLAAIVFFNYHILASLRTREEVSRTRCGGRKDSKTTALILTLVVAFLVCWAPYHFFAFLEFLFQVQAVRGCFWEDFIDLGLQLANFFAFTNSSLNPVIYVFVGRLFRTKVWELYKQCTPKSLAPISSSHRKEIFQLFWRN
In short: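 CHO K1 cells stably expressing human B1R were loaded with Fluo-4, and Ca2+ fluorescence was read on FLIPR (ex 488/em 540 nm). Compound was added first (10 μM for % activation against Lys-Des-Arg9-bradykinin ≥0.5 nM). After 10-20 min, Lys-Des-Arg9-bradykinin was added at EC80 for % inhibition; IC50 came from concentration series, n=2-3, N≥2.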

[2] = molecular target: T2, bradykinin receptor 1 (B1R) of the rat (Rattus norvegicus, UniProt P97583); experiment: Functional study on the bradykinin receptor 1 (B1R), rat: FLIPR Ca2+ influx assay; format: cell-based; conditions: test substance 10 μM, CHO K1 cells transfected with rat B1R, Des-Arg9-bradykinin at EC80, Ca2+ influx (Fluo-4, FLIPR); for inhibition at 10 µM: read-out: B1R antagonism, rat [10 μM] % inhibition
T2 construct: expressed in transfected cells; host or cells: CHO K1 cells
T2 sequence (P97583 1-337): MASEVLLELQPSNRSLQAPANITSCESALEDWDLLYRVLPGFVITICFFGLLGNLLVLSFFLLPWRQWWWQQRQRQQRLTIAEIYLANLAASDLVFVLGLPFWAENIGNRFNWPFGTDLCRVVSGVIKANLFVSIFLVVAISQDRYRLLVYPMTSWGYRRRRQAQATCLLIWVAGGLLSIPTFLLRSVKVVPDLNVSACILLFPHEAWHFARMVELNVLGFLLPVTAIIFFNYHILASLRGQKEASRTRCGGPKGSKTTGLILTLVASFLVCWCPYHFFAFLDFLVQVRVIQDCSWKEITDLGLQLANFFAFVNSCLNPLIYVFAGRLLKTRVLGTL
In short: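 CHO K1 cells stably expressing rat B1R, Fluo-4-loaded, read on FLIPR (ex 488/em 540 nm, peak fluorescence). Test substances added first (agonism vs 10 μM Des-Arg9-bradykinin), then after 10-20 min Des-Arg9-bradykinin at EC80; % inhibition and IC50 from concentration series, n=2-3, N≥2.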

[3] = molecular target: T3, human μ-opiate receptor (Homo sapiens, UniProt P35372); experiment: Affinity for the human μ-opiate receptor ([3H]-naloxone displacement, SPA); conditions: test substance 1 μmol/l, inhibition of specific [3H]-naloxone binding, CHO-K1 receptor membrane preparation; for inhibition at 1 µM: read-out: μ-Opioid receptor [1 μM] % inhibition
T3 construct: purchased PerkinElmer Life Sciences, Zaventem, Belgium RB-HOM; host or cells: CHO-K1 cells (membrane preparation)
In short: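 Membranes from CHO-K1 cells expressing human μ-opiate receptor were incubated 90 min at room temperature with 1 nmol/l [3H]-naloxone and WGA-SPA beads in 50 mmol/l Tris-HCl with 0.06% BSA; non-specific binding was defined with 100 μmol/l naloxone. Percent inhibition was measured at 1 μmol/l, IC50 was derived from concentration series, and Ki was obtained by Cheng-Prusoff.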

T3 sequence (P35372 whole entry): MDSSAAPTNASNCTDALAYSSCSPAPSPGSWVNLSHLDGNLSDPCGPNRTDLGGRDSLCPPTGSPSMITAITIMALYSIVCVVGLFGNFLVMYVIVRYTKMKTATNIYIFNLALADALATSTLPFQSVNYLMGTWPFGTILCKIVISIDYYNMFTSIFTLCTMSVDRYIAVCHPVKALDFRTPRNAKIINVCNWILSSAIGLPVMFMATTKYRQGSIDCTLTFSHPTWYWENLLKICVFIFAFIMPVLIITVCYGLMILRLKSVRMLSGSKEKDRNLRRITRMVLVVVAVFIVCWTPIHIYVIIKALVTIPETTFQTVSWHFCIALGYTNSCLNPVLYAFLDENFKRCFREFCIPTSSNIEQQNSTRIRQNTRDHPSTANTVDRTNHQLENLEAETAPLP

Compound	inhibition at 10 µM [1]	inhibition at 10 µM [2]	inhibition at 1 µM [3]	B1R antagonism, human [10 μM] % inhibition [1]	B1R antagonism, rat [10 μM] % inhibition [2]	μ-Opioid receptor [1 μM] % inhibition [3]
CN1CCN(C(c2ccccc2)C2CCN(C(=O)CC(NS(=O)(=O)c3ccc4ccccc4c3)c3ccccc3)CC2)CC1 (stereo not drawn) [Example 114, N-(3-(4-((4-methylpiperazin-1-yl)(phenyl)methyl)piperidin-1-yl)-3-oxo-1-phenylpropyl)naphthalene-2-sulfonamide]	93%	71%	40%			
CN1CCN(C(c2cccc(F)c2)C2CCN(C(=O)CC3CCCCN3S(=O)(=O)c3cccc(C(F)(F)F)c3)CC2)CC1 (stereo not drawn) [Example 115, 1-(4-((3-fluorophenyl)(4-methylpiperazin-1-yl)methyl)piperidin-1-yl)-2-(1-(3-(trifluoromethyl)phenylsulfonyl)piperidin-2-yl)ethanone]	87%	52%	11%			
CN1CCN(C(Cc2ccccc2)C2CCN(C(=O)CC(NS(=O)(=O)c3ccc4ccccc4c3)c3ccccc3)CC2)CC1 (stereo not drawn) [Example 116, N-(3-(4-(1-(4-methylpiperazin-1-yl)-2-phenylethyl)piperidin-1-yl)-3-oxo-1-phenylpropyl)naphthalene-2-sulfonamide]	102%	93%	7%			
Cc1cc(S(=O)(=O)N2CCCCC2CCC(=O)N2CCC(C(Cc3ccccc3)N3CCN(C)CC3)CC2)c(C)cc1Cl (stereo not drawn) [Example 118, 3-(1-(4-chloro-2,5-dimethylphenylsulfonyl)piperidin-2-yl)-1-(4-(1-(4-methyl-piperazin-1-yl)-2-phenylethyl)piperidin-1-yl)propan-1-one]	101%	93%	3%			
Cc1cc(S(=O)(=O)N2CCCCC2CCC(=O)N2CCC(C(CCc3ccccc3)N3CCN(C)CC3)CC2)c(C)cc1Cl (stereo not drawn) [Example 119, 3-(1-(4-chloro-2,5-dimethylphenylsulfonyl)piperidin-2-yl)-1-(4-(1-(4-methyl-piperazin-1-yl)-3-phenylpropyl)piperidin-1-yl)propan-1-one]	102%	97%	52%			
Cc1cc(S(=O)(=O)N2CCCCC2CCC(=O)N2CCC(C(c3cccc(F)c3)N3CCN(C)CC3)CC2)c(C)cc1Cl (stereo not drawn) [Example 120, 3-(1-(4-chloro-2,5-dimethylphenylsulfonyl)piperidin-2-yl)-1-(4-((3-fluorophenyl)(4-methylpiperazin-1-yl)methyl)piperidin-1-yl)propan-1-one]	105%	73%	41%			
Cc1cc(S(=O)(=O)N2CCCCC2CCC(=O)N2CCC(C(c3ccc(F)cc3)N3CCN(C)CC3)CC2)c(C)cc1Cl (stereo not drawn) [Example 121, 3-(1-(4-chloro-2,5-dimethylphenylsulfonyl)piperidin-2-yl)-1-(4-((4-fluorophenyl)(4-methylpiperazin-1-yl)methyl)piperidin-1-yl)propan-1-one]	105%	58%	6%			
N-(3-(4-(1-(4-methylpiperazin-1-yl)-3-phenylpropyl)piperidin-1-yl)-3-oxo-1-phenylpropyl)naphthalene-2-sulfonamide [Example 113]				97%	39%	21%
